A word on the Km: it is the concentration of substrate that gives half-maximal velocity.

The target of this assay is T1, AfCrh5 (Aspergillus fumigatus, UniProt Q8J0P4).
T1 construct: gene crh5; GST cleaved off by PreScission, N-terminal His6 kept; E. coli BL21(DE3) pLysS
T1 sequence (Q8J0P4 22-275): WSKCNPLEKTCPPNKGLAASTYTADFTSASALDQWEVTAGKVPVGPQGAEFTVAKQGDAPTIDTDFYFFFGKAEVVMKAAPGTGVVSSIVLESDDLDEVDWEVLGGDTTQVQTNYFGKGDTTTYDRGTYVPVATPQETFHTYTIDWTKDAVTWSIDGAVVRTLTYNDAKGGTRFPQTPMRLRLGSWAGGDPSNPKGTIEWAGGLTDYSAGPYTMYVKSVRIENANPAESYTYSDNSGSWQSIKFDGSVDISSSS
The experiment in a line: fluorescent transglycosylation filter-paper assay. The class given is biochemical. The conditions noted are these: acceptor; donor carboxymethyl-chitin; 50 mM citrate pH 4.9, 37 °C; labelled compound. The source says:
fluorescent transglycosylation filter-paper assay on AfCrh5

As for SR-labelled chitopentaose [CH5-SR], the Michaelis-Menten constant (Km) came out at 3.5 ± 0.4 µM.
With SR-labelled laminaripentaose [L5-SR] the figure was 12 ± 3 µM.

The record behind these values is article PMC6458159, “Mechanisms of redundancy and specificity of the Aspergillus fumigatus Crh transglycosylases” (Nature Communications, 2019).
